Experimental data taken from PubChem BioAssay AID256 (DTP/NCI, 2004).
Where “and” joins values, the source holds several entries; their conditions need not be identical. Equal values may be shown once. Inconclusive results and toxic doses are left out. The calls were made as follows: active = survival T/C of 150% or more; inactive = T/C below 125% in these data.

System: CD2F1 mice, L1210 leukemia ip, survival T/C
Experiment: NCI In Vivo Anticancer Drug Screen. Data for tumor model L1210 Leukemia (intraperitoneal) in CD2F1 (CDF1) mice
Settings: endpoint: mean survival time, higher = longer survival
In short: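 Each value reflects a quotient of treated over vehicle control outcomes in mice with a transplanted tumor.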

[1] = dose: 100.0 mg/kg/injection, schedule: Q01DX009 (ip), vehicle: saline with Tween-80
[2] = dose: 100.0 mg/kg/injection, schedule: Q04DX003 (ip), vehicle: saline
[3] = dose: 200.0 mg/kg/injection, schedule: Q01DX009 (ip), vehicle: saline with Tween-80
[4] = dose: 200.0 mg/kg/injection, schedule: Q04DX003 (ip), vehicle: saline
[5] = dose: 100.0 mg/kg/injection, schedule: Q04DX003 (ip), vehicle: saline with Tween-80
[6] = dose: 200.0 mg/kg/injection, schedule: Q04DX003 (ip), vehicle: saline with Tween-80
[7] = dose: 400.0 mg/kg/injection, schedule: Q04DX003 (ip), vehicle: saline with Tween-80
[8] = dose: 400.0 mg/kg/injection, schedule: Q04DX003 (ip), vehicle: saline
[9] = dose: 100.0 mg/kg/injection, schedule: Q01DX001 (ip), vehicle: Klucel (hydroxypropylcellulose) (HPC)

Measured: T/C

Clc1cc(N2CC2)nc(N2CC2)n1
inactive: dose: 0.94 mg/kg/injection, schedule: Q01DX009 (ip), vehicle: saline 122 % of control | dose: 1.6 mg/kg/injection, schedule: Q01DX009 (ip), vehicle: saline 120 % of control | dose: 7.5 mg/kg/injection, schedule: Q01DX009 (ip), vehicle: saline 89 % of control
active: dose: 1.41 mg/kg/injection, schedule: Q01DX009 (ip), vehicle: saline 150 % of control | dose: 4.5 mg/kg/injection, schedule: Q01DX009 (ip), vehicle: saline 168 % of control

Cc1cn(C2CC3OP(O)(=S)OCC3O2)c(=O)[nH]c1=O (configuration not stated)
inactive: dose: 8.7 mg/kg/injection, schedule: Q01DX005 (ip), vehicle: water 101 % of control | dose: 17.5 mg/kg/injection, schedule: Q01DX005 (ip), vehicle: water 102 % of control | dose: 35.0 mg/kg/injection, schedule: Q01DX005 (ip), vehicle: water 101 % of control | dose: 70.0 mg/kg/injection, schedule: Q01DX005 (ip), vehicle: water 104 % of control

Nc1ncnc2c1nc(N1CCCC1)n2C1OC(CO)C(O)C1O (configuration not stated)
inactive: dose: 12.5 mg/kg/injection, schedule: Q01DX005 (ip), vehicle: distilled water + Tween-80 104 % of control and 93 % of control | dose: 25.0 mg/kg/injection, schedule: Q01DX005 (ip), vehicle: distilled water + Tween-80 104 % of control and 98 % of control | dose: 50.0 mg/kg/injection, schedule: Q01DX005 (ip), vehicle: distilled water + Tween-80 102 % of control and 100 % of control | dose: 100.0 mg/kg/injection, schedule: Q01DX005 (ip), vehicle: distilled water + Tween-80 100 % of control and 90 % of control | dose: 200.0 mg/kg/injection, schedule: Q01DX005 (ip), vehicle: distilled water + Tween-80 105 % of control and 97 % of control

CCNc1nc(NC(C)C)nc(SC)n1
inactive: dose: 50.0 mg/kg/injection, schedule: Q01DX009 (ip), vehicle: saline with Tween-80 104 % of control | [1] 101 % of control | [2] 97 % of control | [3] 117 % of control | [4] 101 % of control

CCC[CH2][Sn]1([CH2]CCC)[O]c2ccccc2[O]1
inactive: dose: 1.56 mg/kg/injection, schedule: Q04DX002 (ip), vehicle: saline with Tween-80 100 % of control | dose: 3.12 mg/kg/injection, schedule: Q04DX002 (ip), vehicle: saline with Tween-80 96 % of control | dose: 6.25 mg/kg/injection, schedule: Q04DX002 (ip), vehicle: saline with Tween-80 98 % of control | dose: 12.5 mg/kg/injection, schedule: Q04DX002 (ip), vehicle: saline with Tween-80 113 % of control

CCCCCCCCCCCCCCCCOc1ccc(S(=O)(=O)NC2CCCCC2)cc1N
inactive: [5] 104 % of control | [6] 94 % of control | [7] 96 % of control

NC(=O)NC1OC(CO)C(O)C(O)C1O (configuration not stated)
inactive: [2] 100 % of control | [4] 100 % of control | [8] 105 % of control

Nc1cccc(OCCOc2ccccc2[N+](=O)[O-])c1
inactive: [9] 93 % of control | dose: 200.0 mg/kg/injection, schedule: Q01DX001 (ip), vehicle: Klucel (hydroxypropylcellulose) (HPC) 90 % of control | dose: 400.0 mg/kg/injection, schedule: Q01DX001 (ip), vehicle: Klucel (hydroxypropylcellulose) (HPC) 90 % of control

Nc1nc(N)c2c(n1)NCN(OCc1c(Cl)cccc1Cl)C2
inactive: dose: 0.75 mg/kg/injection, schedule: Q01DX009 (ip), vehicle: water 96 % of control | dose: 1.5 mg/kg/injection, schedule: Q01DX009 (ip), vehicle: water 100 % of control | dose: 3.0 mg/kg/injection, schedule: Q01DX009 (ip), vehicle: water 102 % of control | dose: 6.0 mg/kg/injection, schedule: Q01DX009 (ip), vehicle: water 102 % of control | dose: 12.0 mg/kg/injection, schedule: Q01DX009 (ip), vehicle: water 104 % of control | dose: 24.0 mg/kg/injection, schedule: Q01DX009 (ip), vehicle: water 100 % of control

Nc1nc2nc(CBr)c(CBr)nc2c(=O)[nH]1
inactive: [3] 101 % of control

Nc1nc(-c2ccccc2)nc2c1=NC(c1ccccc1)N=2 (configuration not stated)
inactive: dose: 12.5 mg/kg/injection, schedule: Q01DX005 (ip), vehicle: other 96 % of control | dose: 25.0 mg/kg/injection, schedule: Q01DX005 (ip), vehicle: other 98 % of control | dose: 50.0 mg/kg/injection, schedule: Q01DX005 (ip), vehicle: other 98 % of control | dose: 100.0 mg/kg/injection, schedule: Q01DX005 (ip), vehicle: other 93 % of control | dose: 200.0 mg/kg/injection, schedule: Q01DX005 (ip), vehicle: other 93 % of control

CC(=O)OC1=NC(C)c2c1cc(OC(C)=O)[nH]c2=O (configuration not stated)
inactive: dose: 6.25 mg/kg/injection, schedule: Q01DX009 (ip), vehicle: Klucel (hydroxypropylcellulose) (HPC) 104 % of control and 107 % of control | dose: 12.5 mg/kg/injection, schedule: Q01DX009 (ip), vehicle: Klucel (hydroxypropylcellulose) (HPC) 101 % of control and 106 % of control | dose: 25.0 mg/kg/injection, schedule: Q01DX009 (ip), vehicle: Klucel (hydroxypropylcellulose) (HPC) 104 % of control and 110 % of control | dose: 50.0 mg/kg/injection, schedule: Q01DX009 (ip), vehicle: Klucel (hydroxypropylcellulose) (HPC) 100 % of control and 101 % of control | dose: 100.0 mg/kg/injection, schedule: Q01DX009 (ip), vehicle: Klucel (hydroxypropylcellulose) (HPC) 113 % of control and 102 % of control

CS(=O)(=O)Nc1ccc(Nc2c3ccccc3nc3cc([N+](=O)[O-])ccc23)cc1
inactive: dose: 100.0 mg/kg/injection, schedule: Q01DX001 (ip), vehicle: saline 116 % of control
active: dose: 7.0 mg/kg/injection, schedule: Q01DX009 (ip), vehicle: saline 237 % of control | dose: 10.0 mg/kg/injection, schedule: Q01DX009 (ip), vehicle: saline 155 % of control | dose: 12.5 mg/kg/injection, schedule: Q01DX001 (ip), vehicle: saline 175 % of control | dose: 25.0 mg/kg/injection, schedule: Q01DX001 (ip), vehicle: saline 195 % of control | dose: 50.0 mg/kg/injection, schedule: Q01DX001 (ip), vehicle: saline 170 % of control

S=C1N(C2CCCCC2)CCN1C1CCCCC1
inactive: dose: 25.0 mg/kg/injection, schedule: Q01DX001 (ip), vehicle: Klucel (hydroxypropylcellulose) (HPC) 108 % of control | dose: 50.0 mg/kg/injection, schedule: Q01DX001 (ip), vehicle: Klucel (hydroxypropylcellulose) (HPC) 108 % of control | [9] 103 % of control

Cc1nc2ccc(Cl)cc2c(=O)o1
inactive: [1] 103 % of control | [5] 96 % of control | [3] 103 % of control | [6] 93 % of control | dose: 400.0 mg/kg/injection, schedule: Q01DX009 (ip), vehicle: saline with Tween-80 96 % of control | [7] 93 % of control

CC1CN(Cc2ccccc2)C1
inactive: dose: 12.5 mg/kg/injection, schedule: Q01DX001 (ip), vehicle: acetone 86 % of control | dose: 25.0 mg/kg/injection, schedule: Q01DX001 (ip), vehicle: acetone 96 % of control | dose: 50.0 mg/kg/injection, schedule: Q01DX001 (ip), vehicle: acetone 94 % of control

C=C1N(c2ccccc2)C(=O)OC1(C)C
inactive: dose: 100.0 mg/kg/injection, schedule: Q04DX002 (ip), vehicle: saline with Tween-80 112 % of control | dose: 200.0 mg/kg/injection, schedule: Q04DX002 (ip), vehicle: saline with Tween-80 112 % of control | dose: 400.0 mg/kg/injection, schedule: Q04DX002 (ip), vehicle: saline with Tween-80 122 % of control

CC(CO)(CO)N(CCO)CCO
inactive: [5] 94 % of control | [6] 100 % of control | [7] 92 % of control

OC(C=C(C(F)(F)F)C(F)(F)F)c1ccccc1Cl (configuration not stated)
inactive: dose: 50.0 mg/kg/injection, schedule: Q04DX003 (ip), vehicle: saline with Tween-80 102 % of control | [5] 107 % of control | [6] 111 % of control

COc1cc(Br)c(CCNC(=O)Cc2cc(OC)c(OC)cc2Br)cc1OC
inactive: [5] 91 % of control | [6] 86 % of control

O=C(/C=C\c1ccc(NCc2ccc(C(=O)O)cc2)cc1)CCl
inactive: [1] 111 % of control | [6] 91 % of control | [7] 86 % of control

CC12CCC3C(CCC4=CC(=O)C(C(O)(C(F)(F)F)C(F)(F)F)CC43C)C1CC(C(O)(C(F)(F)F)C(F)(F)F)C2=O (configuration not stated)
inactive: dose: 100.0 mg/kg/injection, schedule: Q01DX009 (sc), vehicle: steriod suspending solution 90 % of control | dose: 200.0 mg/kg/injection, schedule: Q01DX009 (sc), vehicle: steriod suspending solution 95 % of control | dose: 400.0 mg/kg/injection, schedule: Q01DX009 (sc), vehicle: steriod suspending solution 92 % of control

Cc1ccc(C(CS(=O)(=O)c2ccc(C)cc2)c2ccccc2)cc1 (configuration not stated)
inactive: [2] 93 % of control | [4] 93 % of control | [8] 98 % of control
